Test system: not given
Experiment: not given
Conditions: not given

| melting point | SMILES |
| --- | --- |
| 238 to 242 °C | COc1ccc(S(N)(=O)=O)cc1-n1nc(C)c(S(N)(=O)=O)c1C [Compound 9l, 1-(2-Methoxy-5-sulfamoylphenyl)-3,5-dimethyl-^1H-pyrazole-4-sulfonamide] |
| 256 to 258 °C | COc1cc(-n2nc(C)c(S(N)(=O)=O)c2C)ccc1S(N)(=O)=O [Compound 9k, 1-(3-Methoxy-4-sulfamoylphenyl)-3,5-dimethyl-^1H-pyrazole-4-sulfonamide] |
| 308 to 310 °C | Cc1ccc(S(N)(=O)=O)cc1-n1nc(C)c(S(N)(=O)=O)c1C [Compound 9h, 3,5-Dimethyl-1-(2-methyl-5-sulfamoylphenyl)-^1H-pyrazole-4-sulfonamide] |
| 232 to 235 °C | NS(=O)(=O)c1cnn(-c2ccc(Cl)c(S(N)(=O)=O)c2)c1 [Compound 9n, 1-(4-Chloro-3-sulfamoylphenyl)-^1H-pyrazole-4-sulfonamide] |
| 221 to 223 °C | COc1cc(-n2cccn2)ccc1S(N)(=O)=O [Compound 7j, 2-Methoxy-4-(^1H-pyrazol-1-yl)benzenesulfonamide] |
| 161 to 163 °C | Cc1ccccc1-n1nc(C)c(S(N)(=O)=O)c1C [Compound 8e, 3,5-Dimethyl-1-(2-methylphenyl)-^1H-pyrazole-4-sulfonamide] |
| 161 to 163 °C | Cc1nn(-c2ccccc2)c(C)c1S(N)(=O)=O [Compound 8b, 3,5-Dimethyl-1-phenyl-^1H-pyrazole-4-sulfonamide] |
| 230 to 232 °C | Cc1nn(-c2cc(S(N)(=O)=O)ccc2Cl)c(C)c1S(N)(=O)=O [Compound 9q, 1-(2-Chloro-5-sulfamoylphenyl)-3,5-dimethyl-^1H-pyrazole-4-sulfonamide] |
| 171 to 174 °C | Cc1ccc(-n2nc(C)c(S(N)(=O)=O)c2C)cc1 [Compound 8c, 3,5-Dimethyl-1-(4-methylphenyl)-^1H-pyrazole-4-sulfonamide] |

Target: hCA I (Homo sapiens, UniProt P00915)
Experiment: stopped-flow CA catalysed CO2 hydration assay, hCA I
Conditions: not given

Sequence of hCA I (P00915 whole entry): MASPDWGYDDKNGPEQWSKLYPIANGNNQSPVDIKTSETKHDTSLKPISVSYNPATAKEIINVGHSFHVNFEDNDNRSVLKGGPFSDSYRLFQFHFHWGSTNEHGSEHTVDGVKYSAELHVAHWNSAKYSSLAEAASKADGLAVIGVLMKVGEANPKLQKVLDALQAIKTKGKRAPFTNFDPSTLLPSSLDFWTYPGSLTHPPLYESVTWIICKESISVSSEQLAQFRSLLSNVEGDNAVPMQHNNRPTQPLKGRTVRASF

| Ki | SMILES |
| --- | --- |
| 6800 nM | COc1ccc(S(N)(=O)=O)cc1-n1nc(C)c(S(N)(=O)=O)c1C [Compound 9l, 1-(2-Methoxy-5-sulfamoylphenyl)-3,5-dimethyl-^1H-pyrazole-4-sulfonamide] |
| 4650 nM | COc1cc(-n2nc(C)c(S(N)(=O)=O)c2C)ccc1S(N)(=O)=O [Compound 9k, 1-(3-Methoxy-4-sulfamoylphenyl)-3,5-dimethyl-^1H-pyrazole-4-sulfonamide] |
| 870 nM | Cc1ccc(S(N)(=O)=O)cc1-n1nc(C)c(S(N)(=O)=O)c1C [Compound 9h, 3,5-Dimethyl-1-(2-methyl-5-sulfamoylphenyl)-^1H-pyrazole-4-sulfonamide] |
| 620 nM | NS(=O)(=O)c1cnn(-c2ccc(Cl)c(S(N)(=O)=O)c2)c1 [Compound 9n, 1-(4-Chloro-3-sulfamoylphenyl)-^1H-pyrazole-4-sulfonamide] |
| > 10000 nM | COc1cc(-n2cccn2)ccc1S(N)(=O)=O [Compound 7j, 2-Methoxy-4-(^1H-pyrazol-1-yl)benzenesulfonamide] |
| 600 nM | Cc1ccccc1-n1nc(C)c(S(N)(=O)=O)c1C [Compound 8e, 3,5-Dimethyl-1-(2-methylphenyl)-^1H-pyrazole-4-sulfonamide] |
| 540 nM | Cc1nn(-c2ccccc2)c(C)c1S(N)(=O)=O [Compound 8b, 3,5-Dimethyl-1-phenyl-^1H-pyrazole-4-sulfonamide] |
| 2120 nM | Cc1nn(-c2cc(S(N)(=O)=O)ccc2Cl)c(C)c1S(N)(=O)=O [Compound 9q, 1-(2-Chloro-5-sulfamoylphenyl)-3,5-dimethyl-^1H-pyrazole-4-sulfonamide] |
| 760 nM | Cc1ccc(-n2nc(C)c(S(N)(=O)=O)c2C)cc1 [Compound 8c, 3,5-Dimethyl-1-(4-methylphenyl)-^1H-pyrazole-4-sulfonamide] |

Same assay, conditions: within the panel hCA I, II, IV, VII

| isoform selectivity for hCA I, in words | SMILES |
| --- | --- |
| selective inhibitor of hCA I | Cc1ccc(S(N)(=O)=O)cc1-n1nc(C)c(S(N)(=O)=O)c1C [Compound 9h, 3,5-Dimethyl-1-(2-methyl-5-sulfamoylphenyl)-^1H-pyrazole-4-sulfonamide] |

Target: hCA II (Homo sapiens, UniProt P00918)
Experiment: stopped-flow CA catalysed CO2 hydration assay, hCA II
Conditions: not given

| Ki | SMILES |
| --- | --- |
| 300 nM | COc1ccc(S(N)(=O)=O)cc1-n1nc(C)c(S(N)(=O)=O)c1C [Compound 9l, 1-(2-Methoxy-5-sulfamoylphenyl)-3,5-dimethyl-^1H-pyrazole-4-sulfonamide] |
| 610 nM | COc1cc(-n2nc(C)c(S(N)(=O)=O)c2C)ccc1S(N)(=O)=O [Compound 9k, 1-(3-Methoxy-4-sulfamoylphenyl)-3,5-dimethyl-^1H-pyrazole-4-sulfonamide] |
| > 10000 nM | Cc1ccc(S(N)(=O)=O)cc1-n1nc(C)c(S(N)(=O)=O)c1C [Compound 9h, 3,5-Dimethyl-1-(2-methyl-5-sulfamoylphenyl)-^1H-pyrazole-4-sulfonamide] |
| 24 nM | NS(=O)(=O)c1cnn(-c2ccc(Cl)c(S(N)(=O)=O)c2)c1 [Compound 9n, 1-(4-Chloro-3-sulfamoylphenyl)-^1H-pyrazole-4-sulfonamide] |
| > 10000 nM | COc1cc(-n2cccn2)ccc1S(N)(=O)=O [Compound 7j, 2-Methoxy-4-(^1H-pyrazol-1-yl)benzenesulfonamide] |
| 91 nM | Cc1ccccc1-n1nc(C)c(S(N)(=O)=O)c1C [Compound 8e, 3,5-Dimethyl-1-(2-methylphenyl)-^1H-pyrazole-4-sulfonamide] |
| 280 nM | Cc1nn(-c2ccccc2)c(C)c1S(N)(=O)=O [Compound 8b, 3,5-Dimethyl-1-phenyl-^1H-pyrazole-4-sulfonamide] |
| 25 nM | Cc1nn(-c2cc(S(N)(=O)=O)ccc2Cl)c(C)c1S(N)(=O)=O [Compound 9q, 1-(2-Chloro-5-sulfamoylphenyl)-3,5-dimethyl-^1H-pyrazole-4-sulfonamide] |
| 740 nM | Cc1ccc(-n2nc(C)c(S(N)(=O)=O)c2C)cc1 [Compound 8c, 3,5-Dimethyl-1-(4-methylphenyl)-^1H-pyrazole-4-sulfonamide] |

Same assay, conditions: within the panel hCA I, II, IV, VII

| isoform selectivity for hCA II, in words | SMILES |
| --- | --- |
| selective hCA II inhibitor | Cc1nn(-c2cc(S(N)(=O)=O)ccc2Cl)c(C)c1S(N)(=O)=O [Compound 9q, 1-(2-Chloro-5-sulfamoylphenyl)-3,5-dimethyl-^1H-pyrazole-4-sulfonamide] |

Target: hCA IV (Homo sapiens, UniProt P22748)
Experiment: stopped-flow CA catalysed CO2 hydration assay, hCA IV
Conditions: not given

Sequence of hCA IV (P22748 19-312): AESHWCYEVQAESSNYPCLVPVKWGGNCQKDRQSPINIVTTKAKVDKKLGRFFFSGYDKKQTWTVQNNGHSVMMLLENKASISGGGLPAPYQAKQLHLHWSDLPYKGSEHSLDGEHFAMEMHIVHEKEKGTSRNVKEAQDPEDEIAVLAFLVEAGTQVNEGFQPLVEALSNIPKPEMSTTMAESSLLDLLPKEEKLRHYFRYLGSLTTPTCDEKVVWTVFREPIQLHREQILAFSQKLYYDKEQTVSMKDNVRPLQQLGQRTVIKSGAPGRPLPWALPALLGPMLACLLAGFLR

| Ki | SMILES |
| --- | --- |
| 950 nM | COc1ccc(S(N)(=O)=O)cc1-n1nc(C)c(S(N)(=O)=O)c1C [Compound 9l, 1-(2-Methoxy-5-sulfamoylphenyl)-3,5-dimethyl-^1H-pyrazole-4-sulfonamide] |
| > 10000 nM | COc1cc(-n2nc(C)c(S(N)(=O)=O)c2C)ccc1S(N)(=O)=O [Compound 9k, 1-(3-Methoxy-4-sulfamoylphenyl)-3,5-dimethyl-^1H-pyrazole-4-sulfonamide] |
| > 10000 nM | Cc1ccc(S(N)(=O)=O)cc1-n1nc(C)c(S(N)(=O)=O)c1C [Compound 9h, 3,5-Dimethyl-1-(2-methyl-5-sulfamoylphenyl)-^1H-pyrazole-4-sulfonamide] |
| 74 nM | NS(=O)(=O)c1cnn(-c2ccc(Cl)c(S(N)(=O)=O)c2)c1 [Compound 9n, 1-(4-Chloro-3-sulfamoylphenyl)-^1H-pyrazole-4-sulfonamide] |
| > 10000 nM | COc1cc(-n2cccn2)ccc1S(N)(=O)=O [Compound 7j, 2-Methoxy-4-(^1H-pyrazol-1-yl)benzenesulfonamide] |
| > 10000 nM | Cc1ccccc1-n1nc(C)c(S(N)(=O)=O)c1C [Compound 8e, 3,5-Dimethyl-1-(2-methylphenyl)-^1H-pyrazole-4-sulfonamide] |
| > 10000 nM | Cc1nn(-c2ccccc2)c(C)c1S(N)(=O)=O [Compound 8b, 3,5-Dimethyl-1-phenyl-^1H-pyrazole-4-sulfonamide] |
| 4380 nM | Cc1nn(-c2cc(S(N)(=O)=O)ccc2Cl)c(C)c1S(N)(=O)=O [Compound 9q, 1-(2-Chloro-5-sulfamoylphenyl)-3,5-dimethyl-^1H-pyrazole-4-sulfonamide] |
| > 10000 nM | Cc1ccc(-n2nc(C)c(S(N)(=O)=O)c2C)cc1 [Compound 8c, 3,5-Dimethyl-1-(4-methylphenyl)-^1H-pyrazole-4-sulfonamide] |

Target: hCA VII (Homo sapiens, UniProt P43166)
Experiment: stopped-flow CA catalysed CO2 hydration assay, hCA VII
Conditions: not given

Sequence of hCA VII (P43166 whole entry): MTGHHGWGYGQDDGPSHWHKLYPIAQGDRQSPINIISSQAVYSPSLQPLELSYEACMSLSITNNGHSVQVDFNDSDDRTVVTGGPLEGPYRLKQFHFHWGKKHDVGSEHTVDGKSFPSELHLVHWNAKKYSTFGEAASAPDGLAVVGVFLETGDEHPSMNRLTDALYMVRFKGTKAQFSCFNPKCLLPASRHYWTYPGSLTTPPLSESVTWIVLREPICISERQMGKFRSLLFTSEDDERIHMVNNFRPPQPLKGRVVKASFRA

| Ki | SMILES |
| --- | --- |
| > 10000 nM | COc1ccc(S(N)(=O)=O)cc1-n1nc(C)c(S(N)(=O)=O)c1C [Compound 9l, 1-(2-Methoxy-5-sulfamoylphenyl)-3,5-dimethyl-^1H-pyrazole-4-sulfonamide] |
| 170 nM | COc1cc(-n2nc(C)c(S(N)(=O)=O)c2C)ccc1S(N)(=O)=O [Compound 9k, 1-(3-Methoxy-4-sulfamoylphenyl)-3,5-dimethyl-^1H-pyrazole-4-sulfonamide] |
| > 10000 nM | Cc1ccc(S(N)(=O)=O)cc1-n1nc(C)c(S(N)(=O)=O)c1C [Compound 9h, 3,5-Dimethyl-1-(2-methyl-5-sulfamoylphenyl)-^1H-pyrazole-4-sulfonamide] |
| 99 nM | NS(=O)(=O)c1cnn(-c2ccc(Cl)c(S(N)(=O)=O)c2)c1 [Compound 9n, 1-(4-Chloro-3-sulfamoylphenyl)-^1H-pyrazole-4-sulfonamide] |
| 387 nM | COc1cc(-n2cccn2)ccc1S(N)(=O)=O [Compound 7j, 2-Methoxy-4-(^1H-pyrazol-1-yl)benzenesulfonamide] |
| > 10000 nM | Cc1ccccc1-n1nc(C)c(S(N)(=O)=O)c1C [Compound 8e, 3,5-Dimethyl-1-(2-methylphenyl)-^1H-pyrazole-4-sulfonamide] |
| 530 nM | Cc1nn(-c2ccccc2)c(C)c1S(N)(=O)=O [Compound 8b, 3,5-Dimethyl-1-phenyl-^1H-pyrazole-4-sulfonamide] |
| > 10000 nM | Cc1nn(-c2cc(S(N)(=O)=O)ccc2Cl)c(C)c1S(N)(=O)=O [Compound 9q, 1-(2-Chloro-5-sulfamoylphenyl)-3,5-dimethyl-^1H-pyrazole-4-sulfonamide] |
| > 10000 nM | Cc1ccc(-n2nc(C)c(S(N)(=O)=O)c2C)cc1 [Compound 8c, 3,5-Dimethyl-1-(4-methylphenyl)-^1H-pyrazole-4-sulfonamide] |

Same assay, conditions: within the panel hCA I, II, IV, VII

| isoform selectivity for hCA VII, in words | SMILES |
| --- | --- |
| quite notable | COc1cc(-n2cccn2)ccc1S(N)(=O)=O [Compound 7j, 2-Methoxy-4-(^1H-pyrazol-1-yl)benzenesulfonamide] |
